US5843889A, “Glycopeptide antibiotic derivatives” (Eli Lilly and Company, priority 1997, dated 1998)
In brackets after ≈: the same amount, converted by molar mass.

What was measured:
Type in all cases: cell-based
[1] = test system: Leuconostoc pseudomesenteroides; experiment: MIC, agar dilution on brain-heart infusion agar
Pedicoccus acidilacti = experiment: MIC, agar dilution on brain-heart infusion agar; conditions: Pedioccccus acidilacti (mean of 10)
[2] = test system: Entercoccus gallinarum 245; experiment: MIC, standard broth micro-dilution assay
Description: (§1) The formula I compounds have in vitro and in vivo activity against Gram-positive pathogenic bacteria. The MIC's were determined using a standard broth micro-dilution assay.

Entercoccus faecalis 276 = experiment: MIC, standard broth micro-dilution assay
Description: as §1

[3] = test system: Leuconostoc mesenteroides; experiment: MIC, agar dilution on brain-heart infusion agar; conditions: Leuconostoc mesenteroides (mean of 4)
Pediococcus pentosaceus = experiment: MIC, agar dilution on brain-heart infusion agar; conditions: Pediococcus pentosaceus (mean of 2)
Leuconostoc lactis = experiment: MIC, agar dilution on brain-heart infusion agar; conditions: Leuconostoc lactis (mean of 2)
Lactobacillus confusus = experiment: MIC, agar dilution on brain-heart infusion agar
[4] = test system: Entercoccus faecalis 2041; experiment: MIC, standard broth micro-dilution assay
Description: as §1

[5] = test system: Staphylococcus aureus X778; experiment: MIC, standard broth micro-dilution assay
Description: (§2) The MIC's were determined using a standard broth micro-dilution assay.

[6] = test system: Staphylococcus aureus SA1199; experiment: MIC, standard broth micro-dilution assay
Description: as §2

[7] = test system: Streptococcus pneumoniae P1; experiment: MIC, standard broth micro-dilution assay
Description: as §2

[8] = test system: Staphylococcus aureus X400; experiment: MIC, standard broth micro-dilution assay
Description: as §2

[9] = test system: Staphylococcus aureus 447; experiment: MIC, standard broth micro-dilution assay
Description: as §2

Escherichia coli EC14 = experiment: MIC, standard broth micro-dilution assay
Description: as §2

[10] = test system: Staphylococcus aureus 489; experiment: MIC, standard broth micro-dilution assay
Description: as §2

[11] = test system: Staphylococcus aureus 446; experiment: MIC, standard broth micro-dilution assay
Description: as §2

[12] = test system: Haemophilus influenzae RD; experiment: MIC, standard broth micro-dilution assay
Description: as §2

[13] = test system: Entercoccus faecium 180-1; experiment: MIC, standard broth micro-dilution assay
Description: as §2

[14] = test system: Staphylococcus aureus 491; experiment: MIC, standard broth micro-dilution assay
Description: as §2

[15] = test system: Staphylococcus haemolyticus 105; experiment: MIC, standard broth micro-dilution assay
Description: as §2

[16] = test system: Staphylococcus epidermidis 270; experiment: MIC, standard broth micro-dilution assay
Description: as §2

Entercoccus faecium 180 = experiment: MIC, standard broth micro-dilution assay
Description: as §2

[17] = test system: Staphylococcus aureus SA1199A; experiment: MIC, standard broth micro-dilution assay
Description: as §2

[18] = test system: Staphylococcus haemolyticus 415; experiment: MIC, standard broth micro-dilution assay
Description: as §2

[19] = test system: Staphylococcus aureus SA1199B
Description: as §2

[20] = test system: Staphylococcus aureus S13E
Description: as §2

Row | MIC [1] [µg/mL] | MIC (Pedicoccus acidilacti) [µg/mL] | MIC [2] [µg/mL] | MIC (Entercoccus faecalis 276) [µg/mL] | MIC [3] [µg/mL] | MIC (Pediococcus pentosaceus) [µg/mL] | MIC (Leuconostoc lactis) [µg/mL] | MIC (Lactobacillus confusus) [µg/mL] | MIC [4] [µg/mL] | Compound | also measured
1 | 32 (≈ 18.2 µM) | 5.9 (≈ 3.35 µM) | ≤ 0.06 | 0.5 (≈ 0.284 µM) | 16 (≈ 9.1 µM) | 11 (≈ 6.25 µM) | 4.0 (≈ 2.27 µM) | 16 (≈ 9.1 µM) |  | CNC(CC(C)C)C(=O)NC1C(=O)NC(CC(N)=O)C(=O)NC2C(=O)NC3C(=O)NC(C(=O)NC(C(=O)O)c4cc(O)cc(O)c4-c4cc3ccc4O)C(OC3CC(C)(N)C(O)C(C)O3)c3ccc(c(Cl)c3)Oc3cc2cc(c3OC2OC(CO)C(O)C(O)C2OC2CC(C)(NCc3ccc(-c4ccccc4)cc3)C(O)C(C)O2)Oc2ccc(cc2Cl)C1O (stereo not drawn) [Compound 2, p-phenylbenzyl.cndot.A82846B] | 
2 | 32 (≈ 17.9 µM) | 12 (≈ 6.7 µM) | ≤ 0.06 | 0.5 (≈ 0.279 µM) | 10 (≈ 5.58 µM) | 23 (≈ 12.8 µM) | 8.0 (≈ 4.47 µM) | 16 (≈ 8.93 µM) | ≤ 0.06 | CNC(CC(C)C)C(=O)NC1C(=O)NC(CC(N)=O)C(=O)NC2C(=O)NC3C(=O)NC(C(=O)NC(C(=O)O)c4cc(O)cc(O)c4-c4cc3ccc4O)C(OC3CC(C)(N)C(O)C(C)O3)c3ccc(c(Cl)c3)Oc3cc2cc(c3OC2OC(CO)C(O)C(O)C2OC2CC(C)(NCc3ccc(Sc4ccccc4)cc3)C(O)C(C)O2)Oc2ccc(cc2Cl)C1O (stereo not drawn) [Compound 108, 4-thiophenylbenzyl] | 
3 | 16 (≈ 9.06 µM) | 4.3 (≈ 2.43 µM) | ≤ 0.06 |  | 9.5 (≈ 5.38 µM) | 8.0 (≈ 4.53 µM) | 8.0 (≈ 4.53 µM) | 16 (≈ 9.06 µM) | ≤ 0.06 | CNC(CC(C)C)C(=O)NC1C(=O)NC(CC(N)=O)C(=O)NC2C(=O)NC3C(=O)NC(C(=O)NC(C(=O)O)c4cc(O)cc(O)c4-c4cc3ccc4O)C(OC3CC(C)(N)C(O)C(C)O3)c3ccc(c(Cl)c3)Oc3cc2cc(c3OC2OC(CO)C(O)C(O)C2OC2CC(C)(NCc3ccc(OC(F)(F)F)cc3)C(O)C(C)O2)Oc2ccc(cc2Cl)C1O (stereo not drawn) [Compound 6, 4-trifluoromethoxybenzyl] | 
4 | 32 (≈ 18 µM) | 7.5 (≈ 4.23 µM) | ≤ 0.06 | ≤ 0.06 | 16 (≈ 9.02 µM) | 16 (≈ 9.02 µM) | 16 (≈ 9.02 µM) | 32 (≈ 18 µM) | ≤ 0.06 | CNC(CC(C)C)C(=O)NC1C(=O)NC(CC(N)=O)C(=O)NC2C(=O)NC3C(=O)NC(C(=O)NC(C(=O)O)c4cc(O)cc(O)c4-c4cc3ccc4O)C(OC3CC(C)(N)C(O)C(C)O3)c3ccc(c(Cl)c3)Oc3cc2cc(c3OC2OC(CO)C(O)C(O)C2OC2CC(C)(NCc3ccc(Oc4ccccc4)cc3)C(O)C(C)O2)Oc2ccc(cc2Cl)C1O (stereo not drawn) [Compound 4, p-phenoxybenzyl.cndot.A82846B] | 

Row | Compound | MIC [1] [µg/mL] | MIC (Pedicoccus acidilacti) [µg/mL] | MIC [2] [µg/mL] | MIC (Entercoccus faecalis 276) [µg/mL] | MIC [3] [µg/mL] | MIC (Pediococcus pentosaceus) [µg/mL] | MIC (Leuconostoc lactis) [µg/mL] | MIC (Lactobacillus confusus) [µg/mL] | MIC [4] [µg/mL] | also measured
5 | CNC(CC(C)C)C(=O)NC1C(=O)NC(CC(N)=O)C(=O)NC2C(=O)NC3C(=O)NC(C(=O)NC(C(=O)O)c4cc(O)cc(O)c4-c4cc3ccc4O)C(OC3CC(C)(N)C(O)C(C)O3)c3ccc(c(Cl)c3)Oc3cc2cc(c3OC2OC(CO)C(O)C(O)C2OC2CC(C)(NCc3cccc(Oc4ccccc4)c3)C(O)C(C)O2)Oc2ccc(cc2Cl)C1O (stereo not drawn) [Compound 49, 3-phenoxybenzyl] |  | 55 (≈ 31 µM) | 1 (≈ 0.563 µM) | 0.25 (≈ 0.141 µM) | 64 (≈ 36.1 µM) | 64 (≈ 36.1 µM) | 64 (≈ 36.1 µM) | 64 (≈ 36.1 µM) | ≤ 0.06 | MIC [5]: ≤ 0.06 µg/mL; MIC [6]: 2 µg/mL (≈ 1.13 µM); MIC [7]: ≤ 0.06 µg/mL; MIC [8]: 0.125 µg/mL (≈ 0.0704 µM); MIC [9]: 1 µg/mL (≈ 0.563 µM); MIC (Escherichia coli EC14): > 64 µg/mL; MIC [10]: ≤ 0.06 µg/mL; MIC [11]: 0.5 µg/mL (≈ 0.282 µM); MIC [12]: > 64 µg/mL; MIC [13]: ≤ 0.06 µg/mL; MIC [14]: 0.125 µg/mL (≈ 0.0704 µM); MIC [15]: 1 µg/mL (≈ 0.563 µM); MIC [16]: 1 µg/mL (≈ 0.563 µM); MIC (Entercoccus faecium 180): 0.25 µg/mL (≈ 0.141 µM); MIC [17]: ≤ 0.06 µg/mL; MIC [18]: 1 µg/mL (≈ 0.563 µM); MIC [19]: 1 µg/mL (≈ 0.563 µM); MIC [20]: ≤ 0.06 µg/mL
